We go through 6 molecules from PMC7967160, “Synthesis and Antiviral Evaluation of (1,4-Disubstituted-1,2,3-Triazol)-(E)-2-Methyl-but-2-Enyl Nucleoside Phosphonate Prodrugs” (Molecules, 2021).

Some results are limits rather than exact numbers.

Data set [1] concerns HBV. Kind of data set: HBV assay in Huh7 cells transfected with pCI_HBVpg1820, intracapsid viral DNA by real-time PCR. It is filed as cell-based, hepatitis B virus (HBV). Particulars: for inhibition at 10 µM: Hepatitis B virus, Huh-7, 96 h. As to the method: In Huh7 cells: antiviral activity against HBV in cell culture was measured as previously described. Briefly, Huh7 cells were transfected with plasmid pCI_HBVpg1820 containing 1.1 unit of HBV genome under the control of a human cytomegalovirus (CMV) promoter. The drugs were stored at 1000× in DMSO at −20 °C. For each experiment, the drugs were diluted in DMEM cell culture medium (Thermo Fisher Scientific, Artenay, France) to a final concentration of 10 μM. All drugs were tested in triplicate in two independent experiments. After 4 days of culture, intracapsid viral DNA was quantified by duplex real-time PCR, using primers described elsewhere, on a LightCycler 480 II apparatus (Roche Diagnostics France, Meylan, France) using TaqMan Universal PCR Mastermix II without UNG (Thermo Fisher Scientific, Artenay, France). Cells were quantified using primers by real-time PCR, using primers HPRT1_F (5′-[…]) and HPRT1_R (5′-[…]), on a LightCycler 480 II apparatus (Roche) using a LightCycler® 480 SYBR Green I Master (Roche Diagnostics France, Meylan, France). Cycling reactions were performed with the following parameters: 5 min at 95 °C, followed by 45 cycles of 10 s at 95 °C, 15 s at 60 °C, 10 s at 72 °C. The inhibition of HBV replication (%) and cell culture viability (%) were quantified using the following formulas. Inhibition of HBV replication (%)=1− HBV DNA copy numberDrug/HBV DNA copy numberCell culture medium Cell viability (%)= HPRT1 DNA copy numberDrug/HPRT1 DNA copy numberCell culture medium
Background: In qPCR the cycle at which signal appears reflects the starting amount.

For data set [2], the system named is HBV. Briefly: HBV assay in HepAD38 cells, real-time PCR for HBV DNA in supernatant. It is filed as cell-based. The conditions noted are these: Hepatitis B virus, 168 h, 7 days. The protocol: In HepAD38 cells were seeded at 50,000 cells/well in collagen-coated 96-well plates. Test compounds or 2′,3′-didéoxy-3′-thiacytidin (3TC) (control) were added to HepAD38 cells to a final concentration of 10 μM.
Real-Time PCR for HBV DNA. The experiment lasted 7 days. On day 7, total DNA was purified from the supernatant using a commercially available kit (DNeasy 96 Blood & Tissue kit, Qiagen). The HBV DNA was amplified in a real-time PCR assay using a LightCycler 480 (Roche) as described elsewhere. All samples were tested in duplicate in two to three independent experiments. Analysis: The concentration of compound that inhibited HBV DNA replication by 50% (EC50) was determined by linear regression.

The next data set concerns HIV-1 LAI. Briefly: HIV assay in human PBM cells infected with HIV-1 LAI, RT quantification. It is filed as cell-based. The conditions noted are these: Human immunodeficiency virus 1, PBMC; 10 μM, PBM cells, HIV-1 LAI. The protocol:
The assay was performed as described by Schinazi et al. with minor modifications. […] The supernatants were harvested, and the HIV-1 RT was quantified.

Another data set is described as follows: in vitro. It is filed as cell-based. Particulars: human; PBM cells; read-out: MTS Cytotoxicity (IC50, μM) PBM. As to the method:
(§1) Assays were performed in human peripheral blood mononuclear (PBM) and human liver (HepG2) cells via MTS assay using the CellTiter 96® Non-Radioactive Cell Proliferation (Promega) kit as previously described^3. Cytotoxicity was expressed as the concentration of test compounds that inhibited cell proliferation by 50% (IC50) and calculated using the Chou and Talalay method.

Data set [3] in a line: Cytotoxicity MTS assay in HepG2 cells. It is filed as cell-based. The conditions noted are these: human. As to the method: as §1
A general note: Formazan colour is commonly taken as a measure of viable cells.

In data set [4] the test system is SARS-CoV-2 strain BavPat1. Briefly: SARS-CoV-2 assay in Vero E6 cells (CellTiter-Blue). The conditions noted are these: 10 μM. (In general: Resazurin is reduced to fluorescent resorufin, in cell work by metabolically active cells.)
Data set [5] is described as follows: Cell culture viability in the Huh7 HBV assay (HPRT1 DNA copy number). The conditions noted are these: human.
[6] abbreviates: read-out: HBV % Inhibition Huh7, 10 μM, Huh7 cells, 4 days.
Where [7] appears, read: 10 μM, Huh7 cells, 4 days, read-out: HBV % Inhibition Huh7.

In general, inhibition refers to the relative decrease from the control value, in per cent. By IC50 is commonly meant the concentration needed to halve the response being measured. As a reminder, the viability is a per cent measure of how many cells are alive, often set against a control. A lower viability goes with more harm to the cells. Consider `CCCCCc1ccc(-c2cn(C/C(C)=C/CP(=O)(OCOC(=O)OC(C)C)OCOC(=O)OC(C)C)nn2)cc1` [Compound 11c, [[(E)-4-[4-(4-Pentylphenyl)triazol-1-yl]-3-methyl-but-2-enyl]-(isopropoxycarbonyloxymethoxy)phosphoryl]oxymethyl isopropyl carbonate], for which, in the data set with HBV [1] (10 μM, Huh7 cells, 4 days), the “HBV % Inhibition Huh7” value is listed as 42%. The figures for the inhibition at 10 µM with HBV [1] (setting [6]), with HBV [2] and with HIV-1 LAI were > 40%, < 1% and 44.4%, respectively. Further, the IC50 turned out to be 47.8 µM in the data set “in vitro” and 51.8 µM in data set [3]. For the same molecule, the “SARS-CoV-2 % Inhibition Vero E6” value in data set [4] was <1%. In data set [5], this molecule registered a viability at 4 days, 10 µM of 89%.

As to `C/C(=C\CP(=O)(OCOC(=O)OC(C)C)OCOC(=O)OC(C)C)Cn1cc(C=O)nn1` [Compound 11i, [[(E)-4-(4-Formyltriazol-1-yl)-3-methyl-but-2-enyl]-(isopropoxycarbonyloxymethoxy)phosphoryl]oxymethyl isopropyl carbonate], the inhibition at 10 µM was 33% in the data set with HBV [1] (setting [7]), 6.1% with HBV [2] and 28.4% in the data set with HIV-1 LAI. The values for the half-inhibitory concentration (IC50) (in “in vitro”; in data set [3]) were 75.1 µM and > 100 µM, respectively. In data set [4], the “SARS-CoV-2 % Inhibition Vero E6” value is listed as <1%. This molecule also registered a viability at 4 days, 10 µM in data set [5] of 95%.

Regarding `CCCCCCc1ccc(-c2cn(C/C(C)=C/CP(=O)(OCOC(=O)OC(C)C)OCOC(=O)OC(C)C)nn2)cc1` [Compound 11d, [[(E)-4-[4-(4-Hexylphenyl)triazol-1-yl]-3-methyl-but-2-enyl]-(isopropoxycarbonyloxymethoxy)phosphoryl]oxymethyl isopropyl carbonate], the inhibition at 10 µM was 39% with HBV [1] (setting [7]), 38.8% in the data set with HBV [2] and 41.8% in the data set with HIV-1 LAI. Also, the results for the concentration for half-maximal inhibition (IC50) (in the data set “in vitro”; in data set [3]) were 23.7 µM and 59.6 µM, respectively. Besides, in data set [4], the “SARS-CoV-2 % Inhibition Vero E6” value is <1%. The viability at 4 days, 10 µM in data set [5] was found to be 100%.

As to `CCCCCCCC(=O)NCc1cn(C/C(C)=C/CP(=O)(OCOC(=O)OC(C)C)OCOC(=O)OC(C)C)nn1` [Compound 11k, [[(E)-4-(4-Octanoylaminomethyltriazol-1-yl)-3-methyl-but-2-enyl]-(isopropoxycarbonyloxymethoxy)phosphoryl]oxymethyl isopropyl carbonate], the inhibition at 10 µM is < 1% with HBV [1] (setting [7]), 6.1% with HBV [2] and 42% in the data set on HIV-1 LAI. Also, the IC50 was 51.5 µM in “in vitro” and 57.3 µM in data set [3]. Further, the “SARS-CoV-2 % Inhibition Vero E6” value in data set [4] amounted to 5%. For the same molecule, the viability at 4 days, 10 µM in data set [5] was determined as 100%.

`CCCCCCCc1ccc(-c2cn(C/C(C)=C/CP(=O)(OCOC(=O)OC(C)C)OCOC(=O)OC(C)C)nn2)cc1` [Compound 11e, [[(E)-4-[4-(4-Heptylphenyl)triazol-1-yl]-3-methyl-but-2-enyl]-(isopropoxycarbonyloxymethoxy)phosphoryl]oxymethyl isopropyl carbonate]: in the data set with HBV [1] (10 μM, Huh7 cells, 4 days), the “HBV % Inhibition Huh7” value is recorded as 50%. Also, the inhibition at 10 µM in the data set with HBV [1] (setting [6]) was > 40%; in the data set on HBV [2], 33.5%; in the data set with HIV-1 LAI, 29.9%. In addition, the IC50 in the data set “in vitro” worked out at 9.2 µM; in data set [3], 90.8 µM. The “SARS-CoV-2 % Inhibition Vero E6” value in data set [4] is <1%. This molecule gave a viability at 4 days, 10 µM in data set [5] of 95%.

Consider `CCCCc1ccc(-c2cn(C/C(C)=C/CP(=O)(OCOC(=O)OC(C)C)OCOC(=O)OC(C)C)nn2)cc1` [Compound 11b, [[(E)-4-[4-(4-Butylphenyl)triazol-1-yl]-3-methyl-but-2-enyl]-(isopropoxycarbonyloxymethoxy)phosphoryl]oxymethyl isopropyl carbonate], for which the inhibition at 10 µM in the data set with HBV [1] (setting [7]) was 25%; with HBV [2], 14.4%; with HIV-1 LAI, < 1%. Moreover, the IC50 in the data set “in vitro” is 19.4 µM; in data set [3], 16.2 µM. Moreover, the “SARS-CoV-2 % Inhibition Vero E6” value in data set [4] was <1%. Besides, the viability at 4 days, 10 µM in data set [5] turned out to be 88%.
